This passage reports Kd and IC50 results from patent US20240025906A1 (NEURON23, INC., priority 2022, published 2024).

pIC50, pKd: −log10 of the molar value. Bounds are passed on as bounds.

The target in one assay is T1, TYK2 JH2 (Homo sapiens, UniProt P29597).
T1 construct: purchased DiscoverX (KINOMEscan KdELECT service); host or cells: E. coli BL21-derived (T7 phage display) or HEK-293
Briefly: TYK2 JH2 binding assay (KINOMEscan KdELECT competitive binding). As to conditions: TYK2 JH2 domain, DiscoverX KINOMEscan KdELECT (Assay A); read-out: Biochemical TYK2_DiscoverX_JH2_BND_Kd. A digest of the protocol:
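Test compounds were titrated in 11 three-fold steps against JH2 fragment captured on ligand-loaded magnetic beads, with 1 h incubation at room temperature and DMSO at 0.9%. Eluted kinase was quantified by qPCR, and Kd was fitted from the dose series.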

The test system of assay [1] is JAK1/TYK2 pSTAT5 (Tyr694/699) in THP-1 cell line. Nature of the assay: IFNa-stimulated JAK1/TYK2 pSTAT5 (Tyr694/699) inhibition cellular assay, AlphaLISA. The class given is cell-based. As to conditions: Homo sapiens; THP-1 cells, IFNa-stimulated, AlphaLISA (Assay B); read-out: Cellular_THP1_IFNa-pSTATS_TYK2. The gist of the method: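 THP-1 cells (2e4/well in HBSS) were preincubated with compound (8 points, 6-fold steps from 10000 nM final) for 1 h at 37 °C, then stimulated with IFNa (added at 100 ng/mL) for 30 min. Lysate pSTAT5 was read by AlphaLISA at 615 nm. IC50 came from a 4-parameter fit with bottom 0 and Hill −1.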

T1 sequence (P29597 589-875 limits assumed): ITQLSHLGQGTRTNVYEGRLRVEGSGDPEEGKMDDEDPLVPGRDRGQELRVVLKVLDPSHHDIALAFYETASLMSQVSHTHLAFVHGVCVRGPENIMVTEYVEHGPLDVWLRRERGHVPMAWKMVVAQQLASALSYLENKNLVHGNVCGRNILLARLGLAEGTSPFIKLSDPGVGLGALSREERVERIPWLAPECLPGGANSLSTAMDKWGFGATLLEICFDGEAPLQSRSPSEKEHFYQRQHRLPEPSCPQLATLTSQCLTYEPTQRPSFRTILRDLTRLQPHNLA

`CNc1ncc(-c2nc3cc(OC)ccc3o2)c2cc(NC(=O)[C@H]3C[C@@H]3F)ncc12` [Example 389, (1R,2S)-2-fluoro-N-(5-(5-methoxybenzo[d]oxazol-2-yl)-8-(methylamino)-2,7-naphthyridin-3-yl)cyclopropane-1-carboxamide]: on TYK2 JH2, the pKd is at least 7.00. Further, the pIC50 in assay [1] was at least 6.30.
Turning to `CNc1ncc(-c2nc3cc(OC)ccc3o2)c2cc(NC(=O)[C@@H]3C[C@H]3F)ncc12` [Example 390, (1S,2R)-2-fluoro-N-(5-(5-methoxybenzo[d]oxazol-2-yl)-8-(methylamino)-2,7-naphthyridin-3-yl)cyclopropane-1-carboxamide], the pKd at TYK2 JH2 was at least 7.00. In assay [1], the pIC50 is at least 6.30.
Taken in the same sequence, the figures for `CNc1ncc(-c2nc3cc(OC)ccc3o2)c2cc(NC(=O)CC(C)(O)CO)ncc12` (centres unmarked) [Example 402, 3,4-dihydroxy-N-(5-(5-methoxybenzo[d]oxazol-2-yl)-8-(methylamino)-2,7-naphthyridin-3-yl)-3-methylbutanamide] were at least 7.00 and under 6.30.
As to `CNc1ncc(-c2nc3cc(OC)ccc3o2)c2cc(NC3CCC(=O)O3)ncc12` (centres unmarked) [Example 403, 5-((5-(5-methoxybenzo[d]oxazol-2-yl)-8-(methylamino)-2,7-naphthyridin-3-yl)amino)dihydrofuran-2(3H)-one], the pKd at TYK2 JH2 was at least 7.00. Also, the pIC50 in assay [1] was under 6.30.
Take `CNc1ncc(-c2nc3cc(OC)ccc3o2)c2cc(NC(=O)C3(O)CC3)ncc12` [Example 404, 1-hydroxy-N-(5-(5-methoxybenzo[d]oxazol-2-yl)-8-(methylamino)-2,7-naphthyridin-3-yl)cyclopropane-1-carboxamide]: at TYK2 JH2, the pKd is at least 7.00. Further, the pIC50 in assay [1] was at least 6.30.
For the compound `CNc1ncc(-c2nc3cc(N4CCO[C@@H](C)C4)ccc3o2)c2cc(NC(=O)[C@@H]3C[C@@H]3F)ncc12` [Example 407, (1S,2S)-2-fluoro-N-(8-(methylamino)-5-(5-((S)-2-methylmorpholino)benzo[d]oxazol-2-yl)-2,7-naphthyridin-3-yl)cyclopropane-1-carboxamide], the pKd on TYK2 JH2 was at least 7.00. The pIC50 in assay [1] was at least 6.30.
The like results for `CNc1ncc(-c2nc3cc(N4CCO[C@@H](C)C4)ccc3o2)c2cc(NC(=O)[C@H]3C[C@H]3C)ncc12` [Example 408, (1S,2R)-2-methyl-N-(8-(methylamino)-5-(5-((S)-2-methylmorpholino)benzo[d]oxazol-2-yl)-2,7-naphthyridin-3-yl)cyclopropane-1-carboxamide] were, in that order, at least 7.00 and at least 6.30.
The like results for `CNc1ncc(-c2nc3cc(N4CCO[C@@H](C)C4)ccc3o2)c2cc(NC(=O)C3(C)CC3)ncc12` [Example 409, (S)-1-methyl-N-(8-(methylamino)-5-(5-(2-methylmorpholino)benzo[d]oxazol-2-yl)-2,7-naphthyridin-3-yl)cyclopropane-4-carboxamide] were, in that order, at least 7.00 and at least 6.30.
For the compound `CNc1ncc(-c2nc3cc(N4CCO[C@@H](C)C4)ccc3o2)c2cc(Nc3ccn(C)n3)ncc12` [Example 417, (S)—N^1-methyl-N^6-(1-methyl-1H-pyrazol-3-yl)-4-(5-(2-methylmorpholino)benzo[d]oxazol-2-yl)-2,7-naphthyridine-1,6-diamine], the pKd at TYK2 JH2 is at least 7.00. Also, the pIC50 in assay [1] is at least 6.30.
Taken in the same sequence, the figures for `CNc1ncc(-c2nc3cc(N4CCO[C@H](C)C4)ccc3o2)c2cc(NC(=O)[C@@H]3C[C@@H]3F)ncc12` [Example 418, (1S,2S)-2-fluoro-N-(8-(methylamino)-5-(5-((R)-2-methylmorpholino)benzo[d]oxazol-2-yl)-2,7-naphthyridin-3-yl)cyclopropane-1-carboxamide] were at least 7.00 and at least 6.30.
Taken in the same sequence, the figures for `CNc1ncc(-c2nc3cc(N4CCO[C@H](C)C4)ccc3o2)c2cc(NC(=O)[C@H]3C[C@H]3C)ncc12` [Example 419, (1S,2R)-2-methyl-N-(8-(methylamino)-5-(5-((R)-2-methylmorpholino)benzo[d]oxazol-2-yl)-2,7-naphthyridin-3-yl)cyclopropane-1-carboxamide] were at least 7.00 and at least 6.30.
Taken in the same sequence, the figures for `CNc1ncc(-c2nc3cc(N4CCO[C@H](C)C4)ccc3o2)c2cc(Nc3ccccn3)ncc12` [Example 420, (R)—N^1-methyl-4-(5-(2-methylmorpholino)benzo[d]oxazol-2-yl)-N^6-(pyridin-2-yl)-2,7-naphthyridine-1,6-diamine] were at least 7.00 and at least 6.30.
Turning to `CNc1ncc(-c2nc3cc(N4CCOCC4)ccc3o2)c2cc(NC(=O)[C@@H]3CC3(F)F)ncc12` [Example 421, (S)-2,2-difluoro-N-(8-(methylamino)-5-(5-morpholinobenzo[d]oxazol-2-yl)-2,7-naphthyridin-3-yl)cyclopropane-1-carboxamide], the pKd at TYK2 JH2 is at least 7.00. Besides, in assay [1], the pIC50 is at least 6.30.
The like results for `CNc1ncc(-c2nc3cc(N4CCOCC4)ccc3o2)c2cc(NC(=O)[C@H]3CC3(F)F)ncc12` [Example 422, (R)-2,2-difluoro-N-(8-(methylamino)-5-(5-morpholinobenzo[d]oxazol-2-y1)-2,7-naphthyridin-3-yl)cyclopropane-1-carboxamide] were, in that order, at least 7.00 and at least 6.30.
With `CNc1ncc(-c2nc3cc(N4CCOCC4)ccc3o2)c2cc(NC(=O)[C@H]3C[C@H]3C)ncc12` [Example 423, (1S,2R)-2-methyl-N-(8-(methylamino)-5-(5-morpholinobenzo[d]oxazol-2-yl)-2,7-naphthyridin-3-yl)cyclopropane-1-carboxamide], on TYK2 JH2, the pKd was at least 7.00. Besides, in assay [1], the pIC50 was at least 6.30.
Taken in the same sequence, the figures for `CNc1ncc(-c2nc3cc(N4CCOCC4)ccc3o2)c2cc(NC(=O)[C@@H]3C[C@@H]3F)ncc12` [Example 424, (1S,2S)-2-fluoro-N-(8-(methylamino)-5-(5-morpholinobenzo[d]oxazol-2-yl)-2,7-naphthyridin-3-yl)cyclopropane-1-carboxamide] were at least 7.00 and at least 6.30.
The like results for `CNc1ncc(-c2nc3cc(N4CCOCC4)ccc3o2)c2cc(NC(=O)C3(F)CC3)ncc12` [Example 425, 1-fluoro-N-(8-(methylamino)-5-(5-morpholinobenzo[d]oxazol-2-yl)-2,7-naphthyridin-3-yl)cyclopropane-1-carboxamide] were, in that order, at least 7.00 and at least 6.30.
As to `CNc1ncc(-c2nc3cc(N4CCOCC4)ccc3o2)c2cc(Nc3cc(C)n(C)n3)ncc12` [Example 426, N6-(1,5-dimethyl-1H-pyrazol-3-yl)-N^1-methyl-4-(5-morpholinobenzo[d]oxazol-2-yl)-2,7-naphthyridine-1,6-diamine], the pKd at TYK2 JH2 was at least 7.00. Also, the pIC50 in assay [1] is at least 6.30.
With `CNc1ncc(-c2nc3ccccc3o2)c2cc(Nc3ccccn3)ncc12` [Example 427, 4-(benzo[d]oxazol-2-yl)-N^1-methyl-N^6-(pyridin-2-yl)-2,7-naphthyridine-1,6-diamine], the pKd on TYK2 JH2 is at least 7.00. Also, the pIC50 in assay [1] is at least 6.30.
Taken in the same sequence, the figures for `CCC(=O)Nc1cc2c(-c3nc4ccccc4o3)cnc(NC)c2cn1` [Example 428, N-(5-(benzo[d]oxazol-2-yl)-8-(methylamino)-2,7-naphthyridin-3-yl)propionamide] were at least 7.00 and at least 6.30.
As for `CNc1ncc(-c2nc3ccccc3o2)c2cc(NC(=O)C(C)C)ncc12` [Example 429, N-(5-(benzo[d]oxazol-2-yl)-8-(methylamino)-2,7-naphthyridin-3-yl)isobutyramide], the pKd at TYK2 JH2 is at least 7.00. Also, in assay [1], the pIC50 was under 6.30.
The like results for `[2H]C([2H])([2H])Nc1ncc(-c2nc3ccccc3o2)c2cc(NC(C)=O)ncc12` [Example 431, N-(5-(benzo[d]oxazol-2-yl)-8-((methyl-d3)amino)-2,7-naphthyridin-3-yl)acetamide] were, in that order, at least 7.00 and at least 6.30.
The like results for `[2H]C([2H])([2H])Nc1ncc(-c2nc3ccccc3o2)c2cc(NC(=O)C([2H])([2H])[2H])ncc12` [Example 432, N-(5-(benzo[d]oxazol-2-yl)-8-((methyl-d3)amino)-2,7-naphthyridin-3-yl)acetamide-2,2,2-d3] were, in that order, at least 7.00 and at least 6.30.
For `[2H]C([2H])([2H])Nc1ncc(-c2nc3cc(OC)ccc3o2)c2cc(NC(=O)[C@@H]3C[C@@H]3F)ncc12` [Example 435, (1S,2S)-2-fluoro-N-(5-(5-methoxybenzo[d]oxazol-2-yl)-8-((methyl-d3)amino)-2,7-naphthyridin-3-yl)cyclopropane-1-carboxamide], at TYK2 JH2, the pKd is at least 7.00. In addition, the pIC50 in assay [1] was at least 6.30.
Taken in the same sequence, the figures for `[2H]C([2H])([2H])Nc1ncc(-c2nc3cc(OC([2H])([2H])[2H])ccc3o2)c2cc(NC(=O)[C@H]3C[C@H]3C)ncc12` [Example 439, (1S,2R)—N-(5-(5-(methoxy-d3)benzo[d]oxazol-2-yl)-8-((methyl-d3)amino)-2,7-naphthyridin-3-yl)-2-methylcyclopropane-1-carboxamide] were at least 7.00 and at least 6.30.
